Values quoted from earlier work, collected in US20070260203A1, “Vasoactive agent intraocular implant” (ALLERGAN, INC., priority 2006, published 2007).
Like-named read-outs stand apart in the source and are kept apart here.

Columns and labels:
[1] = target: T1, endothelin-A receptor (Homo sapiens, UniProt P25101); conditions: competitive antagonist of both ETA and ETB
T1 sequence (P25101 21-427): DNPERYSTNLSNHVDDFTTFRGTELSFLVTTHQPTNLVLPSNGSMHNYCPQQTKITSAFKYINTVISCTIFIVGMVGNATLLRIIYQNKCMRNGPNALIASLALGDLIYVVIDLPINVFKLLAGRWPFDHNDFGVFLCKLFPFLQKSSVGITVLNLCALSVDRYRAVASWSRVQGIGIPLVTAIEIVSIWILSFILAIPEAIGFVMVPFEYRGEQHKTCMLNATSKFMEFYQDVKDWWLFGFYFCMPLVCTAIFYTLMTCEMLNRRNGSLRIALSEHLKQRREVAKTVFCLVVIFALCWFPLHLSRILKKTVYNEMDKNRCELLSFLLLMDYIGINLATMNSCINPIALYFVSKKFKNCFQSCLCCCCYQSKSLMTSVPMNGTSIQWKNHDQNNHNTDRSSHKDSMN

Row | affinity for the ETA receptor relative to ETB receptor [1] | SMILES | effective concentration (endothelin receptor antagonist, Giersbergen et al. 2005) | effective concentration (Yoshitomi et al. 2000, rabbit ciliary artery)
1 | slightly higher affinity | COc1ccccc1Oc1c(NS(=O)(=O)c2ccc(C(C)(C)C)cc2)nc(-c2ncccn2)nc1OCCO [Bosentan] | 0.3 to 3 µg/mL | –
2 | – | CC[C@@H]1C(=O)OC[C@@H]1Cc1cncn1C [pilocarpine] | – | 1 to 10 µM
